# According to US5189157A, “Antibacterial cephalosporin compounds” (Hoffmann La Roche Inc., priority 1988, dated 1993):
# Counter-ions that a name gives are not always drawn.
# Experiments:
# Assay type in all cases: cell-based
# P. aeruginosa 8780 = assay: In Vitro MIC, Broth Dilution Method; settings: Pseudomonas aeruginosa, 8780, read-out: In Vitro MIC
# P. aeruginosa 6148B = assay: In Vitro MIC, Broth Dilution Method; settings: Pseudomonas aeruginosa
# P. aeruginosa B = assay: In Vitro MIC, Broth Dilution Method; settings: Pseudomonas aeruginosa
# P. aeruginosa ATCC 27853 = assay: In Vitro MIC, Broth Dilution Method; settings: Pseudomonas aeruginosa, ATCC27853
# P. aeruginosa 5700 = assay: In Vitro MIC, Broth Dilution Method; settings: Pseudomonas aeruginosa
# Description: (§1) The in vitro activity of the compounds of the present invention as measured by the Minimum Inhibitory Concentration in micrograms/ml utilizing the Agar Well Diffusion Method, Agar Dilution Method or Broth Dilution Method against a variety of Gram-positive and Gram-negative organisms, is as follows:
# (§2) In Vitro MIC (μg/ml) Broth Dilution Method
# P. aeruginosa 8710 = assay: In Vitro MIC, Broth Dilution Method; settings: Pseudomonas aeruginosa
# Description: as §1, §2
# P. aeruginosa 765 = assay: In Vitro MIC, Broth Dilution Method; settings: Pseudomonas aeruginosa
# Description: as §1, §2
# P. aeruginosa K77/WT = assay: In Vitro MIC, Broth Dilution Method; settings: Pseudomonas aeruginosa
# Description: as §1, §2
# P. aeruginosa 1973E = assay: In Vitro MIC, Broth Dilution Method; settings: Pseudomonas aeruginosa
# Description: as §1, §2
# P. aeruginosa 503-56 = assay: In Vitro MIC, Broth Dilution Method; settings: Pseudomonas aeruginosa, 50356
# Description: as §1, §2
# P. aeruginosa Stone 130 [1] = assay: In Vitro MIC, Broth Dilution Method; settings: Pseudomonas aeruginosa, STONE130
# P. aeruginosa Stone 130 [2] = assay: In Vitro MIC, Agar Dilution Method; settings: Pseudomonas aeruginosa, STONE130
# Description: as §1
# (§3) In Vitro MIC (μg/ml) Agar Dilution Method
# P. aeruginosa 185/H = assay: In Vitro MIC, Agar Dilution Method; settings: Pseudomonas aeruginosa
# Description: as §1, §3
# P. aureus Giorgid = assay: In Vitro MIC, Agar Dilution Method
# Description: as §1, §3
# S. aureus Smith = assay: In Vitro MIC, Agar Dilution Method; settings: Staphylococcus aureus
# Description: as §1, §3
# S. marscescens SM = assay: In Vitro MIC, Agar Dilution Method
# Description: as §1, §3
# E. coli 48 = assay: In Vitro MIC, Agar Dilution Method; settings: Escherichia coli
# Description: as §1, §3
# K. pneumoniae A = assay: In Vitro MIC, Agar Dilution Method; settings: Klebsiella pneumoniae
# Description: as §1, §3
# P. aeruginosa 130 = assay: In Vitro MIC, Agar Dilution Method; settings: Pseudomonas aeruginosa
# Description: as §1, §3
# E. cloacae 9570A = assay: In Vitro MIC, Agar Dilution Method; settings: Enterobacter cloacae
# Description: as §1, §3
# S. aureus ATCC 25923 = assay: In Vitro MIC, Agar Dilution Method; settings: Staphylococcus aureus, ATCC25923
# Description: as §1, §3
# E. cloaca P99 = assay: In Vitro MIC, Agar Dilution Method
# Description: as §1, §3
# P. mirabilis 190 = assay: In Vitro MIC, Agar Dilution Method; settings: Proteus mirabilis
# Description: as §1, §3
# S. aureus 1059B = assay: In Vitro MIC, Agar Dilution Method; settings: Staphylococcus aureus
# Description: as §1, §3
# P. aeruginosa K77/61 = assay: In Vitro MIC, Broth Dilution Method; settings: Pseudomonas aeruginosa, K77/61, read-out: In Vitro MIC
# Description: as §1, §2
structure (smiles),measurement,setting,value
"CO/N=C(\C(=O)N[C@@H]1C(=O)N2C(C(=O)O)=C(COC(=O)c3ccc(O)c(O)c3)CS[C@H]12)c1csc(N)n1 [Compound A, [6R-[6 alpha,7 beta(Z)]]-7-[[(2-amino-4-thiazolyl)(methoxyimino)acetyl]amino]-3-[[[(3,4-dihydroxyphenyl)carbonyl]oxy]methyl]-8-oxo-5-thia-1-azabicyclo[4.2.0]oct-2-ene-2-carboxylic acid monosodium salt]",MIC,P. aeruginosa 8780,0.5 µg/mL
same,MIC,P. aeruginosa 6148B,2 µg/mL
same,MIC,P. aeruginosa B,2 µg/mL
same,MIC,P. aeruginosa ATCC 27853,8 µg/mL
same,MIC,P. aeruginosa 5700,8 µg/mL
same,MIC,P. aeruginosa 8710,2 µg/mL
same,MIC,P. aeruginosa 765,4 µg/mL
same,MIC,P. aeruginosa K77/WT,1 µg/mL
same,MIC,P. aeruginosa 1973E,4 µg/mL
same,MIC,P. aeruginosa 503-56,4 µg/mL
same,MIC,P. aeruginosa Stone 130 [1],2 µg/mL
"CCN1CCN(C(=O)N[C@@H](C(=O)N[C@@H]2C(=O)N3C(C(=O)O)=C(COC(=O)c4ccc(O)c(O)c4)CS[C@H]23)c2ccccc2)C(=O)C1=O [Compound D, [6R-[6 alpha,7 beta(R*)]]-7-[[[[(4-ethyl-2,4-dioxo-1-piperazinyl)carbonyl]amino]phenylacetyl]amino]-3-[[(3,4-dihydroxy)benzoyl]oxy]-methyl]-8-oxo-5-thia-1-azabicyclo(4.2.0)oct-2-ene-2-carboxylic acid monosodium salt]",MIC,P. aeruginosa 8710,0.125 µg/mL
"CC(=O)Oc1ccc(C(=O)OCC2=C(C(=O)O)N3C(=O)[C@@H](NC(=O)/C(=N\OCC(N)=O)c4csc(N)n4)[C@H]3SC2)cc1OC(C)=O [Compound B, [6R-[6 alpha,7 beta(Z)]]-3-[[[3,4-bis(acetyloxy)benzoyl]oxy]methyl]-7-[[[2-amino-4-thiazolyl][(2-amino-2-oxoethoxy)imino]acetyl]amino]-8-oxo-5-thia-1-azabicyclo[4.2.0]oct-2-ene-2-carboxylic acid monosodium salt]",MIC,P. aeruginosa Stone 130 [2],4 µg/mL
same,MIC,P. aeruginosa 185/H,2 µg/mL
same,MIC,P. aureus Giorgid,8 µg/mL
same,MIC,S. aureus Smith,4 µg/mL
same,MIC,S. marscescens SM,1 µg/mL
same,MIC,E. coli 48,0.031 µg/mL
same,MIC,K. pneumoniae A,0.125 µg/mL
same,MIC,P. aeruginosa 130,4 µg/mL
same,MIC,E. cloacae 9570A,1 µg/mL
same,MIC,S. aureus ATCC 25923,2 µg/mL
same,MIC,E. cloaca P99,32 µg/mL
same,MIC,P. mirabilis 190,0.063 µg/mL
same,MIC,S. aureus 1059B,4 µg/mL
"CC(C)(O/N=C(\C(=O)N[C@@H]1C(=O)N2C(C(=O)O)=C(COC(=O)c3ccc(O)c(O)c3)CS[C@H]12)c1csc(N)n1)C(=O)O [Compound C, [6R-[6 alpha,7 beta(Z)]]-7-[[(2-amino-4-thiazolyl)(1-carboxy-1-methylethoxy)-imino]acetyl]amino]-3-[[(3,4-dihydroxybenzoyl)oxy]methyl]-8-oxo-5-thia-1-azabicyclo[4.2.0]oct-2-ene-2-carboxylic acid disodium salt]",MIC,P. aeruginosa 8780,> 0.008 µg/mL
same,MIC,P. aeruginosa B,0.125 µg/mL
same,MIC,P. aeruginosa 5700,2 µg/mL
same,MIC,P. aeruginosa K77/61,> 0.008 µg/mL
same,MIC,P. aeruginosa 8710,0.063 µg/mL
same,MIC,P. aeruginosa 765,8 µg/mL
same,MIC,P. aeruginosa 1973E,2 µg/mL
